From PubChem BioAssay AID1117347 (Cheminformatics & Chemogenomics Research Group (CCRG), …, 2015)
Active and inactive are the calls of the source. No rule for the calls is given here.

Test system: HeLa cell count decrease
Assay: decrease in HeLa cell numbers, dose-response curve, cell enumeration, 50% inhibitory concentration (AID 1117347)

| Structure (SMILES) | IC50 |
| --- | --- |
| Cc1ccc2nc(N)[nH]c(=O)c2c1Sc1ccncc1 | > 10 µM (inactive) |
| NC(=NCCCCCCN=C(N)/N=C(\N)Nc1ccc(Cl)cc1)/N=C(\N)Nc1ccc(Cl)cc1 | 6.71 µM (inactive) |
| CC[C@H]1CN2CCc3cc(OC)c(OC)cc3[C@@H]2C[C@@H]1C[C@H]1NCCc2cc(OC)c(OC)cc21 | 0.0327 µM |
| CC(C)OC(=O)OCOP(=O)(CO[C@H](C)Cn1cnc2c(N)ncnc21)OCOC(=O)OC(C)C | 0.289 µM |
| CC[n+]1c(-c2ccccc2)c2cc(N)ccc2c2ccc(N)cc21 | > 10 µM (inactive) |
| CC(C)=CCOc1ccc(/C=C/C(=O)c2ccc(OCC=C(C)C)cc2OCC(=O)O)cc1 | > 10 µM (inactive) |
| Nc1ccc2cc3ccc(N)cc3nc2c1 | 1.34 µM |
| CCc1oc2ccccc2c1C(=O)c1cc(Br)c(O)c(Br)c1 | > 10 µM (inactive) |
| CO[C@@H]1[C@@H](OC)[C@H](C)[C@@](O)(CC(=O)O)O[C@H]1[C@H](C)[C@H]1O[C@@]2(CC[C@@](C)([C@H]3CC[C@@](C)([C@@H]4O[C@@H]([C@H]5O[C@](C)(O)[C@H](C)C[C@@H]5C)C[C@@H]4OC4C[C@H](OC)[C@@H](OC)[C@H](C)O4)O3)O2)C[C@H](O)[C@H]1C (stereo partly specified) | 2.75 µM |
| CN1CC[C@H](c2c(O)cc(O)c3c(=O)cc(-c4ccccc4Cl)oc23)[C@H](O)C1 | 0.0212 µM |
| CCC(=O)c1ccc(O)cc1 | > 10 µM (inactive) |
| COCCOC(=O)C1=C(C)NC(C)=C(C(=O)OC/C=C/c2ccccc2)C1c1cccc([N+](=O)[O-])c1 (stereo unspecified) | > 10 µM (inactive) |
| CCN(CC)CCOc1ccccc1C(=O)CCc1ccccc1 | > 10 µM (inactive) |
| CC[C@@]1(O)C(=O)OCc2c1cc1n(c2=O)Cc2cc3c(CN(C)C)c(O)ccc3nc2-1 | 0.009 µM |
| COc1ccc2cc3[n+](cc2c1OC)CCc1cc2c(cc1-3)OCO2 | > 10 µM (inactive) |
| Oc1c(I)cc(I)c2cccnc12 | > 10 µM (inactive) |
| CC(C)C[C@H](NC(=O)[C@H](CCc1ccccc1)NC(=O)CN1CCOCC1)C(=O)N[C@@H](Cc1ccccc1)C(=O)N[C@@H](CC(C)C)C(=O)[C@@]1(C)CO1 | 0.0099 µM |
| CC(=O)Oc1ccccc1C(=O)Nc1ncc([N+](=O)[O-])s1 | > 10 µM (inactive) |
| Cc1ccccc1C(OCCN(C)C)c1ccccc1 (stereo unspecified) | > 10 µM (inactive) |
| O=C(c1cc(O)c(O)c(O)c1)c1ccc(O)c(O)c1O | > 10 µM (inactive) |
| CC(C)n1c(/C=C/[C@@H](O)C[C@@H](O)CC(=O)O)c(-c2ccc(F)cc2)c2ccccc21 | > 10 µM (inactive) |
| COc1cc([C@@H]2c3cc4c(cc3[C@H](O)[C@H]3COC(=O)[C@H]23)OCO4)cc(OC)c1OC | 0.0048 µM |

| Structure (SMILES) | IC50 |
| --- | --- |
| Clc1ccc(Nc2nnc(Cc3ccncc3)c3ccccc23)cc1 | > 10 µM (inactive) |
| Cc1ccc([N+](=O)[O-])[c]2c1[O][Hg]2 | 0.385 µM |
| CN(C)/N=N/c1nc[nH]c1C(N)=O | > 10 µM (inactive) |
| C[C@@H](O[C@H]1OCCN(Cc2n[nH]c(=O)[nH]2)[C@H]1c1ccc(F)cc1)c1cc(C(F)(F)F)cc(C(F)(F)F)c1 | > 10 µM (inactive) |
| C=CC(=O)Nc1cc2c(Nc3ccc(F)c(Cl)c3)ncnc2cc1OCCCN1CCOCC1 | 2.09 µM |
| N[C@@H](Cc1ccc(N(CCCl)CCCl)cc1)C(=O)O | 0.39 µM |
| CCCCCCCCCCCCNCCNCCNCC(=O)O | > 10 µM (inactive) |
| NC(N)=NN=C(/C=C/c1ccc([N+](=O)[O-])o1)/C=C/c1ccc([N+](=O)[O-])o1 | > 10 µM (inactive) |
| CC[C@@]1(O)C(=O)OCc2c1cc1n(c2=O)Cc2c-1nc1ccccc1c2/C=N/OC(C)(C)C | 0.0022 µM |
| CCN(CC)CCNc1ccc(CO)c2sc3ccccc3c(=O)c12 | 5.92 µM (inactive) |
| COc1cc2c(c(OC)c1OC)-c1ccc(OC)c(=O)cc1[C@@H](NC(C)=O)CC2 | 0.00188 µM |
| COc1ccc(-c2nc3ccc(C4=NNC(=O)CC4C)cc3[nH]2)cc1 (stereo unspecified) | 7.23 µM (inactive) |
| CCCNCC(O)COc1ccccc1C(=O)CCc1ccccc1 (stereo unspecified) | > 10 µM (inactive) |
| CC(C)(C)C(=O)OCOP(=O)(COCCn1cnc2c(N)ncnc21)OCOC(=O)C(C)(C)C | 0.134 µM |
| CN1CCCC(CC2c3ccccc3Sc3ccccc32)C1 (stereo unspecified) | > 10 µM (inactive) |
| COc1ccc(/C=C/C(=O)c2ccc(OC)cc2OC)cc1 | 0.708 µM |
| CCc1oc2ccccc2c1C(=O)c1cc(I)c(O)c(I)c1 | > 10 µM (inactive) |
| CCCCOC(=O)c1ccc(N)cc1 | > 10 µM (inactive) |
| CCCN(CCC)C(=O)C(CCC(=O)OCCCN1CCN(CCOC(=O)Cc2c(C)n(C(=O)c3ccc(Cl)cc3)c3ccc(OC)cc23)CC1)NC(=O)c1ccccc1 (stereo unspecified) | 5.48 µM (inactive) |
| O=c1c(-c2ccccc2)c1-c1ccccc1 | 1.69 µM |
| Nc1nc(F)nc2c1ncn2[C@@H]1O[C@H](CO)[C@@H](O)[C@@H]1O | > 10 µM (inactive) |
| CC(=O)[C@]1(O)Cc2c(O)c3c(c(O)c2[C@@H](O[C@H]2C[C@H](N)[C@H](O)[C@H](C)O2)C1)C(=O)c1ccccc1C3=O | 0.0142 µM |

| Structure (SMILES) | IC50 |
| --- | --- |
| O=C1[C@H]2CCCC[C@H]2C(=O)N1CCCCN1CCN(c2nsc3ccccc23)CC1 | > 10 µM (inactive) |
| COc1cc(NC(C)CCCN)c2ncccc2c1 (stereo unspecified) | > 10 µM (inactive) |
| CC(C)(C)C1CCC(CC2=C(O)c3ccccc3C(=O)C2=O)CC1 (stereo unspecified) | > 10 µM (inactive) |
| CC[C@H](C)C(=O)O[C@H]1C[C@@H](C)C=C2C=C[C@H](C)[C@H](CC[C@@H]3C[C@@H](O)CC(=O)O3)[C@H]21 | > 10 µM (inactive) |
| Cn1cnc([N+](=O)[O-])c1Sc1ncnc2nc[nH]c12 | > 10 µM (inactive) |
| COCc1c(C(C)C)nc(C(C)C)c(/C=C/[C@@H](O)C[C@@H](O)CC(=O)O)c1-c1ccc(F)cc1 | > 10 µM (inactive) |
| CC(C)=CCC/C(C)=C/CC/C(C)=C/C(=O)OCC(=O)[C@@]1(O)CC[C@H]2[C@@H]3CCC4=CC(=O)C=C[C@]4(C)[C@H]3[C@@H](O)C[C@@]21C | 0.0595 µM |
| CCN1/C(=C/C=C/c2sc3ccccc3[n+]2CC)Sc2ccccc21 | 0.036 µM |
| C[C@@H]1C[C@@H]([C@H](O)CC2CC(=O)NC(=O)C2)C(=O)[C@@H](C)C1 | 0.542 µM |
| OC[C@H]1O[C@@H](n2cnc3c(=S)nc[nH]c32)[C@H](O)[C@@H]1O | > 10 µM (inactive) |
| O=C1C(=O)c2ccccc2C(O)=C1C1CCC(c2ccc(Cl)cc2)CC1 (stereo unspecified) | > 10 µM (inactive) |
| COc1c(C)c2c(c(O)c1C/C=C(\C)CCC(=O)OCCN1CCOCC1)C(=O)OC2 | > 10 µM (inactive) |
| CCc1nc(N)nc(N)c1-c1ccc(Cl)cc1 | > 10 µM (inactive) |
| CCC(COC(=O)c1cc(OC)c(OC)c(OC)c1)(c1ccccc1)N(C)C (stereo unspecified) | > 10 µM (inactive) |
| O=[N+]([O-])c1ccc(O)c2ncccc12 | 0.295 µM |
| COc1cccc2c1C(=O)c1c(O)c3c(c(O)c1C2=O)C[C@@](O)(C(=O)CO)CC3OC1CC(N2CCOC(OC)C2)C(O)C(C)O1 (stereo partly specified) | 0.00468 µM |
| CSc1ccc2c(c1)C(N1CCN(C)CC1)Cc1ccccc1S2 (stereo unspecified) | > 10 µM (inactive) |
| Cc1ccc(S(=O)(=O)NC(=O)NN2CC3CCCC3C2)cc1 (stereo unspecified) | > 10 µM (inactive) |
| Oc1ccc([C@H]2CNCc3c2ccc(O)c3O)cc1O | > 10 µM (inactive) |
| O=Cc1ccc(O)c(O)c1O | > 10 µM (inactive) |
| CN(C)CCC=C1c2ccccc2CCc2ccccc21 | > 10 µM (inactive) |
| Cc1nc(Nc2ncc(C(=O)Nc3c(C)cccc3Cl)s2)cc(N2CCN(CCO)CC2)n1 | 0.875 µM |
